In brackets after ≈: the same amount, converted by molar mass. Where two headings read alike, the source gives them in different places.

The target of one assay is E. coli Gyrase (Escherichia coli, UniProt P0AES6). Put plainly: DNA Gyrase ATPase assay (E. coli Gyrase Ki). The assay is classed as biochemical. On the procedure:
The ATP hydrolysis activity of DNA gyrase was measured by coupling the production of ADP through pyruvate kinase/lactate dehydrogenase to the oxidation of NADH. This method has been described previously (Tamura and Gellert, 1990, J. Biol. Chem., 265, 21342).
ATPase assays were carried out at 30° C. in buffered solutions containing 100 mM TRIS pH 7.6, 1.5 mM MgCl2, 150 mM KCl. The coupling system contains (final concentrations) 2.5 mM phosphoenol pyruvate, 200 μM nicotinamide adenine dinucleotide (NADH), 1 mM DTT, 30 ug/ml pyruvate kinase, and 10 ug/ml lactate dehydrogenase. 40 nanomolar enzyme and a DMSO solution of the inhibitor to a final concentration of 4% was added and the reaction mixture was allowed to incubate for 10 minutes at 30° C. The reaction was then started by the addition of ATP to a final concentration of 0.9 mM and the rate of NADH disappearance at 340 nanometers was measured over the course of 10 minutes. The Ki values were determined from rate versus concentration profiles.
The compound numbers correspond to the compound numbers in Table 2. Compounds having an activity designated as “A” provided a Ki inhibition value equal to or above 0.100 micromolar. Compounds having an activity designated as “B” provided a Ki inhibition value between 0.050 micromolar and 0.100 micromolar. […] The term “ND” means no data.

The subject of another assay is Staphylococcus aureus. Put plainly: Susceptibility testing in liquid media (MIC), S. aureus. Type of assay: cell-based. The settings on record: 35° C. overnight, read-out: S. aureus MIC range. On the procedure: (§1) Compounds of this invention were also tested for antimicrobial activity by susceptibility testing in liquid media. Such assays were performed within the guidelines of the latest NCCLS document governing such practices: “M7-A5 Methods for dilution Antimicrobial Susceptibility Tests for Bacteria that Grow Aerobically; Approved Standard—Fifth Edition (2000)”. Other publications such as “Antibiotics in Laboratory Medicine” (Edited by V. Lorian, Publishers Williams and Wilkins, 1996) provide essential practical techniques in laboratory antibiotic testing. Essentially, several discrete bacterial colonies of Staphylococcus aureus, Streptococcus pneumoniae, Haemophilus influenzae, or Enterococcus faecalis (3 to 7) from a freshly streaked plate were transferred to an appropriate rich broth medium such as MHB, and supplemented where appropriate for the more fastidious organisms. This was grown overnight to high density followed by a 1 or 2-thousand-fold dilution to give an inoculation density of between 5×10^5 and 5×10^6 CFU per mL. Alternatively, the freshly picked colonies can be incubated at 37° C. for about 4 to 8 hours until the culture equals or exceeds a turbidity of a 0.5 McFarland standard (approximately 1.5×10^8 cells per mL) and diluted to give the same CFU per mL as above. In a more convenient method, the inoculum was prepared using a commercially available mechanical device (the BBL PROMPT System) that involves touching five colonies directly with a wand, containing crosshatch grooves at its bottom, followed by suspension of the bacteria in an appropriate volume of saline. Dilution to the appropriate inoculum cell density was made from this cell suspension. The broth used for testing consists of MHB supplemented with 50 mg per L of Ca^2+ and 25 mg per L of Mg^2+. Standard dilution panels of control antibiotics were made and stored as in the NCCLS standard M7-A5, the dilution range typically being in the 128 μg per mL to […] (by 2-fold serial dilution). The test compounds were dissolved and diluted fresh for experimentation on the same day; the same or similar ranges of concentration as above being used. The test compounds and controls were dispensed into a multiwell plate and test bacteria added such that the final inoculation was approximately 5×10^4 CFU per well and the final volume was 100 μL. The plates were incubated at 35° C. overnight (16 to 20 hours) and checked by eye for turbidity or quantitated with a multiwell plate reader. […] Such determinations were also compared to the appropriate tables contained in the above two publications to ensure that the range of antibacterial activity is within the acceptable range for this standardized assay.
(§2) The compound numbers correspond to the compound numbers in Table 2.

Another assay concerns Streptococcus pneumoniae. Briefly: Susceptibility testing in liquid media (MIC), S. pneumoniae. Type of assay: cell-based. The settings on record: 35° C. overnight, read-out: S. pneumoniae MIC range. On the procedure:
as §1, §2

In the next assay the test system is Haemophilus influenzae. Briefly: Susceptibility testing in liquid media (MIC), H. influenzae. Type of assay: cell-based. The settings on record: 35° C. overnight, read-out: H. influenzae MIC range. On the procedure:
as §1, §2

The subject of another assay is Enterococcus faecalis. Briefly: Susceptibility testing in liquid media (MIC), E. faecalis. The settings on record: 35° C. overnight, read-out: E. faecalis MIC range. Type of assay: cell-based. On the procedure: as §1, §2
The target in another assay is S. aureus TopoIV (Staphylococcus aureus, UniProt P0C1S7). Put plainly: DNA Topo IV ATPase assay (S. aureus TopoIV Ki). The assay is classed as biochemical. The settings on record: 30° C., read-out: S. aureus Topo IV Ki Inhibition Ranges (Activity). On the procedure: DNA Topo IV ATPase Assay:
The conversion of ATP to ADP by TopoIV enzyme was coupled to the conversion of NADH to NAD+ and measured by the change in absorbance at 340 nm. Topo4 was incubated with inhibitor (4% DMSO final) in buffer for 10 minutes at 30° C. Reaction was initiated with ATP and rates were monitored continuously for 20 minutes at 30° C. on a Molecular Devices SpectraMAX plate reader. The inhibition constant, Ki, was determined from plots of rate vs. [Inhibitor] fit to the Morrison Equation for tight binding inhibitors.
S. aureus TopoIV Buffer: 100 mM Tris 7.5, 2 mM MgCl2, 200 mM K●Glutamate, 2.5 mM phosphoenol pyruvate, 0.2 mM NADH, 1 mM DTT, 4.25 μg/mL linearized DNA, 50 μg/mL BSA, 30 μg/mL pyruvate kinase, and 10 μg/mL lactate dehyrodgenase (LDH).
The compound numbers correspond to the compound numbers in Table 2. Compounds having an activity designated as “A” provided a Ki inhibition value equal to or above 0.500 micromolar. […] The term “ND” means no data.

The mark [1] stands for this setting: ATPase assay, 30° C., 0.9 mM ATP, read-out: E. coli Gyrase Ki Inhibition Ranges (Activity).

Chain of S. aureus TopoIV (P0C1S7 whole entry): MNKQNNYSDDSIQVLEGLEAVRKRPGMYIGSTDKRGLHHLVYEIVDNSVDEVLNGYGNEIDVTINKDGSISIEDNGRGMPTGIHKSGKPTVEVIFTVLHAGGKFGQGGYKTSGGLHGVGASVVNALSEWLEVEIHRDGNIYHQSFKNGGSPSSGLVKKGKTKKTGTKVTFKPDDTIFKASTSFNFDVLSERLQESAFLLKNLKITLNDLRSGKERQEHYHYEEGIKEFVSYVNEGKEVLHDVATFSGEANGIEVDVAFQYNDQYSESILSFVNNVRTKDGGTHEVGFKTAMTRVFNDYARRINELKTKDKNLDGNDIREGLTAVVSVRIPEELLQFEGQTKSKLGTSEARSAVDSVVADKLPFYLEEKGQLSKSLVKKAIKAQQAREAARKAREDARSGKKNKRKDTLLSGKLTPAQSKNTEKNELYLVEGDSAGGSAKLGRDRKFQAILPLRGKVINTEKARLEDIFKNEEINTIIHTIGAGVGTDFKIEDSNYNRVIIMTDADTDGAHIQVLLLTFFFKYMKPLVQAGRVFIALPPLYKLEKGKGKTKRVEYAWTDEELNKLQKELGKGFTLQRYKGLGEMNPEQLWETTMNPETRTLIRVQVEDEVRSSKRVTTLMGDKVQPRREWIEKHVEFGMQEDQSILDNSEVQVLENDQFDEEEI
Chain of S. aureus TopoIV (P0C1U9 whole entry partner): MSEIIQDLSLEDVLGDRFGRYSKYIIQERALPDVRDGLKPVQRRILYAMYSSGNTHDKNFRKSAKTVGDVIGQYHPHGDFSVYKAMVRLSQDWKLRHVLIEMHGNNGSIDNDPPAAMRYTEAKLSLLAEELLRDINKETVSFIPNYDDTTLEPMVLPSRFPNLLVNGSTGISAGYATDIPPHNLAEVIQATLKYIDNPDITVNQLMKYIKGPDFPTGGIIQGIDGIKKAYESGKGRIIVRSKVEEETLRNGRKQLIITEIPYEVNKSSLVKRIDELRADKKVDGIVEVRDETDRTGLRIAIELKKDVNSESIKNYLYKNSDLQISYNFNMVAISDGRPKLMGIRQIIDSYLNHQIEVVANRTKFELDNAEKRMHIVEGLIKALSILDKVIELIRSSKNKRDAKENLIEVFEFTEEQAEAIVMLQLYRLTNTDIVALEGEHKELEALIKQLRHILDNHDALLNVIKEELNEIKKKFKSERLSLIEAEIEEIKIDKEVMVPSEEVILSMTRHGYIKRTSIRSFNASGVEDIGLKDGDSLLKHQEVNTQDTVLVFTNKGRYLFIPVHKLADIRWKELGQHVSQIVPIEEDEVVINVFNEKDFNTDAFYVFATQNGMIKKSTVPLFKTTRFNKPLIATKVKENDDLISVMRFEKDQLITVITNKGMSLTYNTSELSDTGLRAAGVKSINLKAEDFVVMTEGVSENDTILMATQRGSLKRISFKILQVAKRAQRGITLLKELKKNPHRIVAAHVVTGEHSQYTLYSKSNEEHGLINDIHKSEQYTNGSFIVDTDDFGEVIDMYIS

As usually defined, the Ki is a measure of affinity in units of concentration, obtained from inhibition or displacement. As for `CCNC(=O)Nc1nc2cc(OC)cc(-n3cccn3)c2[nH]1` [Compound I-1], the Ki on E. coli Gyrase (setting [1]) was in the range of 50 to 100 nM. In addition, the MIC in the assay on Staphylococcus aureus is more than 7 µg/mL; in the assay with Streptococcus pneumoniae, 1 to 7 µg/mL (≈ 3.33 to 23.3 µM); in the assay on Haemophilus influenzae, more than 7 µg/mL; in the assay on Enterococcus faecalis, more than 7 µg/mL.

Consider `CCNC(=O)Nc1nc2cc(C(=O)O)cc(-c3ncccc3F)c2[nH]1` [Compound I-2], for which the Ki on E. coli Gyrase (setting [1]) is more than 100 nM. Besides, the MIC with Staphylococcus aureus, with Streptococcus pneumoniae, with Haemophilus influenzae and with Enterococcus faecalis was more than 7 µg/mL throughout.

Take `CCNC(=O)Nc1nc2cc(C(=O)NC)cc(-c3ncccc3F)c2[nH]1` [Compound I-3]: the Ki at E. coli Gyrase (setting [1]) was less than 50 nM. Further, the MIC was more than 7 µg/mL in the assay with Staphylococcus aureus, less than 1 µg/mL with Streptococcus pneumoniae, more than 7 µg/mL in the assay on Haemophilus influenzae and less than 1 µg/mL in the assay with Enterococcus faecalis.

Regarding `CCNC(=O)Nc1nc2cc(C#N)cc(-c3ncccc3F)c2[nH]1` [Compound I-4], the inhibition constant (Ki) on E. coli Gyrase (setting [1]) is 50 to 100 nM. Further, the MIC in the assay on Staphylococcus aureus was more than 7 µg/mL; in the assay with Streptococcus pneumoniae it was less than 1 µg/mL; in the assay on Haemophilus influenzae, more than 7 µg/mL; in the assay with Enterococcus faecalis, 1 to 7 µg/mL (≈ 3.08 to 21.6 µM).

As for `CCNC(=O)Nc1nc2cc(N3CCN(C(C)=O)CC3)cc(-c3ncccn3)c2[nH]1` [Compound I-5], the Ki at E. coli Gyrase (setting [1]) is less than 50 nM. In addition, the MIC in the assay with Staphylococcus aureus was more than 7 µg/mL; with Streptococcus pneumoniae, less than 1 µg/mL; in the assay with Haemophilus influenzae, more than 7 µg/mL; in the assay on Enterococcus faecalis, 1 to 7 µg/mL (≈ 2.45 to 17.1 µM).

Turning to `CCNC(=O)Nc1nc2cc(N3CCCC3=O)cc(-c3ncccn3)c2[nH]1` [Compound I-6], the inhibition constant (Ki) at E. coli Gyrase (setting [1]) was less than 50 nM. Also, the MIC is more than 7 µg/mL in the assay on Staphylococcus aureus, less than 1 µg/mL in the assay on Streptococcus pneumoniae, more than 7 µg/mL in the assay on Haemophilus influenzae and 1 to 7 µg/mL (≈ 2.74 to 19.2 µM) in the assay on Enterococcus faecalis.

Take `CCNC(=O)Nc1nc2cc(C(=O)OC)cc(-c3ncccc3F)c2[nH]1` [Compound I-7]: on E. coli Gyrase (setting [1]), the inhibition constant Ki is less than 50 nM. In addition, the MIC is more than 7 µg/mL in the assay on Staphylococcus aureus, 1 to 7 µg/mL (≈ 2.8 to 19.6 µM) with Streptococcus pneumoniae, more than 7 µg/mL in the assay on Haemophilus influenzae and 1 to 7 µg/mL (≈ 2.8 to 19.6 µM) in the assay with Enterococcus faecalis.

Regarding `CCNC(=O)Nc1nc2cc(/C(C)=C/C(=O)N(C)C)cc(-c3ncccc3F)c2[nH]1` [Compound I-8], the results for the Ki on E. coli Gyrase and on S. aureus TopoIV were 50 to 100 nM and not above 250 nM, respectively. The MIC in the assay on Staphylococcus aureus is more than 7 µg/mL; in the assay on Streptococcus pneumoniae, less than 1 µg/mL; with Haemophilus influenzae it was more than 7 µg/mL; in the assay on Enterococcus faecalis, 1 to 7 µg/mL (≈ 2.44 to 17.1 µM).

For `CCNC(=O)Nc1nc2cc(C(C)CC(=O)NC)cc(-c3ncccc3F)c2[nH]1` (centres unmarked) [Compound I-9], the Ki at E. coli Gyrase was more than 100 nM; at S. aureus TopoIV it was not below 500 nM. Moreover, the MIC in the assay with Staphylococcus aureus was more than 7 µg/mL; with Streptococcus pneumoniae, 1 to 7 µg/mL (≈ 2.51 to 17.6 µM); with Haemophilus influenzae it was more than 7 µg/mL; with Enterococcus faecalis, more than 7 µg/mL.

As to `CCNC(=O)Nc1nc2cc(/C(C)=C/C(=O)NC)cc(-c3ncccc3F)c2[nH]1` [Compound I-10], the inhibitory constant (Ki) is less than 50 nM on E. coli Gyrase and not above 250 nM at S. aureus TopoIV. The MIC with Staphylococcus aureus was more than 7 µg/mL; with Streptococcus pneumoniae, less than 1 µg/mL; with Haemophilus influenzae, more than 7 µg/mL; in the assay with Enterococcus faecalis, less than 1 µg/mL.

On to `CCNC(=O)Nc1nc2cc(C3CCN(C)C(=O)C3)cc(-c3ncccc3F)c2[nH]1` (centres unmarked) [Compound I-13], for which the Ki on E. coli Gyrase is less than 50 nM; at S. aureus TopoIV, not above 250 nM. The MIC in the assay with Staphylococcus aureus was 1 to 7 µg/mL (≈ 2.44 to 17.1 µM); in the assay with Streptococcus pneumoniae, less than 1 µg/mL; in the assay on Haemophilus influenzae it was more than 7 µg/mL; in the assay on Enterococcus faecalis, less than 1 µg/mL.

In the case of `CCNC(=O)Nc1nc2cc(NCc3ccccn3)cc(-c3ncccn3)c2[nH]1` [Compound I-14], the inhibition constant Ki is 50 to 100 nM on E. coli Gyrase and not below 500 nM on S. aureus TopoIV. The MIC in the assay with Staphylococcus aureus was more than 7 µg/mL; with Streptococcus pneumoniae it was less than 1 µg/mL; with Haemophilus influenzae, more than 7 µg/mL; in the assay with Enterococcus faecalis, 1 to 7 µg/mL (≈ 2.57 to 18 µM).

Consider `CCNC(=O)Nc1nc2cc(F)cc(-c3ncccn3)c2[nH]1` [Compound I-15], for which the Ki was less than 50 nM on E. coli Gyrase and not below 500 nM at S. aureus TopoIV. In addition, the MIC was more than 7 µg/mL with Staphylococcus aureus, 1 to 7 µg/mL (≈ 3.33 to 23.3 µM) in the assay with Streptococcus pneumoniae, more than 7 µg/mL with Haemophilus influenzae and 1 to 7 µg/mL (≈ 3.33 to 23.3 µM) with Enterococcus faecalis.

On to `CCNC(=O)Nc1nc2cc(C#N)c(F)c(-n3cccn3)c2[nH]1` [Compound I-16], for which the Ki on E. coli Gyrase is less than 50 nM; on S. aureus TopoIV, not below 500 nM. In addition, the MIC with Staphylococcus aureus is more than 7 µg/mL; with Streptococcus pneumoniae, 1 to 7 µg/mL (≈ 3.19 to 22.3 µM); with Haemophilus influenzae it was more than 7 µg/mL; with Enterococcus faecalis, more than 7 µg/mL.

Take `CCNC(=O)Nc1nc2cc(C3CCN(Cc4ccccc4)C(=O)C3)cc(-n3cccn3)c2[nH]1` (centres unmarked) [Compound I-17]: the Ki at E. coli Gyrase was more than 100 nM; at S. aureus TopoIV it was not above 250 nM. Also, the MIC in the assay on Staphylococcus aureus was 1 to 7 µg/mL (≈ 2.19 to 15.3 µM); in the assay on Streptococcus pneumoniae, less than 1 µg/mL; with Haemophilus influenzae, more than 7 µg/mL; with Enterococcus faecalis, 1 to 7 µg/mL (≈ 2.19 to 15.3 µM).

With `CCNC(=O)Nc1nc2cc(C3=CC(=O)N(Cc4ccccc4)CC3)cc(-n3cccn3)c2[nH]1` [Compound I-18], the inhibitory constant (Ki) on E. coli Gyrase is less than 50 nM; at S. aureus TopoIV it was not above 250 nM. The MIC in the assay with Staphylococcus aureus was less than 1 µg/mL; in the assay on Streptococcus pneumoniae it was less than 1 µg/mL; in the assay with Haemophilus influenzae, more than 7 µg/mL; with Enterococcus faecalis it was less than 1 µg/mL.

On to `CCNC(=O)Nc1nc2cc(C(C)CC(=O)N(C)C)cc(-c3ncccc3F)c2[nH]1` (centres unmarked) [Compound I-19], for which the inhibition constant Ki on E. coli Gyrase is more than 100 nM; at S. aureus TopoIV, not below 500 nM. Besides, the MIC with Staphylococcus aureus was more than 7 µg/mL; in the assay with Streptococcus pneumoniae, 1 to 7 µg/mL (≈ 2.42 to 17 µM); in the assay with Haemophilus influenzae it was more than 7 µg/mL; in the assay on Enterococcus faecalis, 1 to 7 µg/mL (≈ 2.42 to 17 µM).

The record behind these values is patent publication US8394803B2, “Gyrase inhibitors and uses thereof” (Vertex Pharmaceuticals Incorporated, priority 2005, dated 2013).
